Assay results from the CheMixHub viscosity set.

Assay: xn = mol fraction of the nth substance listed

Cc1ccccn1 + CCC(C)=O
viscosity [mPa·s], 101.3 kPa
Conditions	x1 = 0.1	x1 = 0.2	x1 = 0.3	x1 = 0.4	x1 = 0.5	x1 = 0.6	x1 = 0.7	x1 = 0.7999	x1 = 0.9
303.15 K	0.4017	0.4296	0.4565	0.4877	0.5193	0.5612	0.5978	0.6425	0.6942
313.15 K	0.3667	0.3917	0.416	0.4445	0.4702	0.5038	0.5356	0.5718	0.6118
323.15 K	0.3457	0.3572	0.3813	0.4009	0.4264	0.4523	0.4827	0.5104	0.5528

ClC=C(Cl)Cl + CCC(C)=O
viscosity [mPa·s], 101.33 kPa
Conditions	x1 = 0.1037	x1 = 0.1997	x1 = 0.3082	x1 = 0.3915	x1 = 0.4564	x1 = 0.5979	x1 = 0.7166	x1 = 0.7989	x1 = 0.891
298.15 K	–	0.507	–	–	0.557	0.592	0.612	0.622	0.63
308.15 K	0.447	0.467	0.491	0.506	0.518	0.543	0.559	0.564	0.575
318.15 K	0.413	0.434	0.456	0.471	0.481	0.504	0.521	0.531	0.541

ClC=C(Cl)Cl + CCC(C)O
303.15 K, 101.3 kPa
Conditions	viscosity [mPa·s]
x1 = 0.1104	1.721
x1 = 0.213	1.3
x1 = 0.312	1.042
x1 = 0.4086	0.881
x1 = 0.5218	0.761
x1 = 0.6132	0.695
x1 = 0.7094	0.647
x1 = 0.8124	0.606
x1 = 0.9012	0.57

NC1CCCCC1 + CCC(C)O
298.15 K, 101 kPa
Conditions	viscosity [mPa·s]
x1 = 0.0767	2.804
x1 = 0.1574	2.619
x1 = 0.2426	2.472
x1 = 0.3325	2.369
x1 = 0.4277	2.302
x1 = 0.5285	2.25
x1 = 0.6355	2.224
x1 = 0.7493	2.148
x1 = 0.8706	2.002

CC(O)CO (centres undefined) + CCCCCCCO
Conditions	viscosity [mPa·s]
303.15 K, 101 kPa, x2 = 0.6097	7.655

ClC=C(Cl)Cl + CCCCCCCO
303.15 K, 101 kPa
Conditions	viscosity [mPa·s]
x2 = 0.1161	0.734
x2 = 0.2045	0.863
x2 = 0.3792	1.166
x2 = 0.4884	1.459
x2 = 0.5714	1.767
x2 = 0.6298	2.03
x2 = 0.737	2.643
x2 = 0.8161	3.197
x2 = 0.9242	4.119

CC(O)CO (centres undefined) + CCCCCCO
101 kPa
Conditions	viscosity [mPa·s]
303.15 K, x2 = 0.6309	6.725
308.15 K, x2 = 0.0771	20.05

O=C1CCCC1 + CCCCCCO
303.15 K, 101 kPa
Conditions	viscosity [mPa·s]
x1 = 0.0985	2.896
x1 = 0.2605	2.093
x1 = 0.4224	1.641
x1 = 0.5807	1.333
x1 = 0.7406	1.132
x1 = 0.9025	1.016

O=C1CCCC1 + CCCCCO
303.15 K, 101 kPa
Conditions	viscosity [mPa·s]
x1 = 0.0989	2.258
x1 = 0.2598	1.682
x1 = 0.4202	1.353
x1 = 0.5803	1.179
x1 = 0.7374	1.057
x1 = 0.9009	0.98

O=C1CCCC1 + CCCCN
303.15 K, 101.33 kPa
Conditions	viscosity [mPa·s]
x2 = 0.0957	1.45
x2 = 0.2075	1.902
x2 = 0.3126	2.204
x2 = 0.4731	2.34
x2 = 0.5364	2.252
x2 = 0.6816	1.904
x2 = 0.7758	1.552
x2 = 0.8894	1.073

CC(O)CO (centres undefined) + CCCCO
viscosity [mPa·s], 100 kPa
Conditions	298.15 K	303.15 K	308.15 K	313.15 K	318.15 K	323.15 K
x2 = 0.1	27.93	21.57	16.86	13.38	10.79	8.811
x2 = 0.2	19.65	15.46	12.28	9.943	8.14	6.729
x2 = 0.302	14.18	11.36	9.188	7.539	6.25	5.239
x2 = 0.4	10.82	8.829	7.309	6.057	5.107	4.328
x2 = 0.5	8.015	6.634	5.555	4.699	–	–
x2 = 0.501	–	–	–	–	3.987	3.422
x2 = 0.6	6.068	5.094	4.337	3.686	–	–
x2 = 0.601	–	–	–	–	3.178	2.743
x2 = 0.701	4.884	4.156	3.556	3.057	2.659	2.317
x2 = 0.801	3.858	3.307	2.885	2.514	2.199	1.937
x2 = 0.9	3.102	2.716	2.374	2.078	–	–
x2 = 0.901	–	–	–	–	1.833	1.634

ClC=C(Cl)Cl + CCCCO
viscosity [mPa·s], 101 kPa
Conditions	x2 = 0.0983	x2 = 0.2464	x2 = 0.3954	x2 = 0.5452	x2 = 0.696	x2 = 0.8476
303.15 K	0.669	0.98	1.24	1.492	1.747	2
313.15 K	0.601	0.814	1.03	1.218	1.408	1.599
323.15 K	0.52	0.698	0.835	0.973	1.111	1.252

NC1CCCCC1 + CCCCO
viscosity [mPa·s], 101 kPa
Conditions	293.15 K	298.15 K	303.15 K
x1 = 0.0515	2.935	2.587	2.27
x1 = 0.0767	–	2.558	–
x1 = 0.1008	2.906	2.563	2.26
x1 = 0.147	2.891	2.549	2.24
x1 = 0.1574	–	2.555	–
x1 = 0.2004	2.886	2.545	2.236
x1 = 0.2426	–	2.564	–
x1 = 0.2992	2.897	2.547	2.233
x1 = 0.3325	–	2.574	–
x1 = 0.4007	2.882	2.533	2.216
x1 = 0.4277	–	2.549	–
x1 = 0.4475	2.868	2.523	–
x1 = 0.4971	2.829	2.48	2.172
x1 = 0.5285	–	2.481	–
x1 = 0.5421	2.784	2.442	2.142
x1 = 0.6078	2.701	2.387	2.095
x1 = 0.6355	–	2.379	–
x1 = 0.7051	2.558	2.259	1.991
x1 = 0.7493	–	2.248	–
x1 = 0.7941	2.419	2.142	1.893
x1 = 0.846	2.344	2.08	1.842
x1 = 0.8706	–	2.062	–
x1 = 0.8879	2.295	2.039	1.81
x1 = 0.9384	2.216	1.973	1.751

O=C1CCCC1 + CCCCO
303.15 K, 101 kPa
Conditions	viscosity [mPa·s]
x1 = 0.101	1.725
x1 = 0.2614	1.339
x1 = 0.4183	1.143
x1 = 0.5813	1.026
x1 = 0.7417	0.974
x1 = 0.899	0.959

NC1CCCCC1 + CCCCOC(C)=O
298.15 K, 101 kPa
Conditions	viscosity [mPa·s]
x1 = 0.1151	0.6149
x1 = 0.2265	0.6836
x1 = 0.3342	0.8301
x1 = 0.4385	1.032
x1 = 0.5394	1.253
x1 = 0.6373	1.455
x1 = 0.7321	1.618
x1 = 0.8241	1.734
x1 = 0.9134	1.779

O=C1CCCC1 + CCCCOC(C)=O
viscosity [mPa·s], 101 kPa
Conditions	x2 = 0.0703	x2 = 0.1461	x2 = 0.2264	x2 = 0.3112	x2 = 0.4036	x2 = 0.4995	x2 = 0.6079	x2 = 0.7264	x2 = 0.8541
298.15 K	1.044	1	0.957	0.913	0.867	0.826	0.785	0.749	0.714
303.15 K	0.961	0.921	0.881	0.84	0.797	0.758	0.72	0.686	0.654
308.15 K	0.892	0.856	0.82	0.783	0.746	0.71	0.676	0.645	0.618
313.15 K	0.835	0.8	0.766	0.732	0.697	0.662	0.63	0.6	0.575

ClC=C(Cl)Cl + CCCCOCCO
viscosity [mPa·s], 101.33 kPa
Conditions	x1 = 0.1147	x1 = 0.2158	x1 = 0.3119	x1 = 0.4264	x1 = 0.5157	x1 = 0.6108	x1 = 0.687	x1 = 0.8076	x1 = 0.9043
303.15 K	2.11	1.821	1.568	1.297	1.111	0.937	0.817	0.671	0.582
313.15 K	1.646	1.451	1.271	1.074	0.934	0.806	0.718	0.608	0.537

NC1CCCCC1 + CCCCOCCO
298.15 K, 101 kPa
Conditions	viscosity [mPa·s]
x1 = 0.1169	2.872
x1 = 0.2295	3.006
x1 = 0.338	3.059
x1 = 0.4427	3.069
x1 = 0.5437	3.011
x1 = 0.6412	2.872
x1 = 0.7355	2.697
x1 = 0.8266	2.447
x1 = 0.9147	2.09
